PubChem BioAssay AID2060883 (Molecular Pharmacology Branch, DTP, NCI, 2025)

Test system: 843782-103-R-J1-PDC complex spheroid viability
Test: Anticancer human tumor 843782-103-R-J1-PDC patient-derived lung adenocarcinoma cell line growth inhibition [RAS]
Conditions: for IC50: curve of first compound; for viability, T/C: stronger effect = lower value
In short: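 Tumour cells grown as complex spheroids with HUVEC endothelial cells and mesenchymal stem cells, treated with RAS pathway inhibitor combinations. Each agent spans half-log steps from near clinical Cmax, or 10 microM where Cmax is unknown.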

[1] = second compound 0.00316 µM, first compound 0.0316 µM
[2] = second compound 0.00316 µM, first compound 0.1 µM
[3] = second compound 0.00316 µM, first compound 0.316 µM
[4] = second compound 0.00316 µM, first compound 1 µM
[5] = second compound 0.01 µM, first compound 0.0316 µM
[6] = second compound 0.01 µM, first compound 0.1 µM
[7] = second compound 0.01 µM, first compound 0.316 µM
[8] = second compound 0.01 µM, first compound 1 µM
[9] = second compound 0.0316 µM, first compound 0.00316 µM
[10] = second compound 0.0316 µM, first compound 0.01 µM
[11] = second compound 0.0316 µM, first compound 0.0316 µM
[12] = second compound 0.0316 µM, first compound 0.1 µM
[13] = second compound 0.0316 µM, first compound 0.316 µM
[14] = second compound 0.0316 µM, first compound 1 µM
[15] = second compound 0.1 µM, first compound 0.00316 µM
[16] = second compound 0.1 µM, first compound 0.01 µM
[17] = second compound 0.1 µM, first compound 0.0316 µM
[18] = second compound 0.1 µM, first compound 0.1 µM
[19] = second compound 0.1 µM, first compound 0.316 µM
[20] = second compound 0.1 µM, first compound 1 µM
[21] = second compound 0.316 µM, first compound 0.00316 µM
[22] = second compound 0.316 µM, first compound 0.01 µM
[23] = second compound 0.316 µM, first compound 0.0316 µM
[24] = second compound 0.316 µM, first compound 0.1 µM
[25] = second compound 0.316 µM, first compound 0.316 µM
[26] = second compound 0.316 µM, first compound 1 µM
[27] = second compound 1 µM, first compound 0.00316 µM
[28] = second compound 1 µM, first compound 0.01 µM
[29] = second compound 1 µM, first compound 0.0316 µM
[30] = second compound 1 µM, first compound 0.1 µM
[31] = second compound 1 µM, first compound 0.316 µM
[32] = second compound 1 µM, first compound 1 µM
[33] = second compound 0.0316 µM, first compound 3.16 µM
[34] = second compound 0.0316 µM, first compound 10 µM
[35] = second compound 0.1 µM, first compound 3.16 µM
[36] = second compound 0.1 µM, first compound 10 µM
[37] = second compound 0.316 µM, first compound 3.16 µM
[38] = second compound 0.316 µM, first compound 10 µM
[39] = second compound 1 µM, first compound 3.16 µM
[40] = second compound 1 µM, first compound 10 µM
[41] = second compound 3.16 µM, first compound 0.0316 µM
[42] = second compound 3.16 µM, first compound 0.1 µM
[43] = second compound 10 µM, first compound 0.0316 µM
[44] = second compound 10 µM, first compound 0.1 µM
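Also: viability read after seven days of compound exposure.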

O=C(c1ccc(F)c(F)c1Nc1ccc(I)cc1F)N1CC(O)([C@@H]2CCCCN2)C1 + C=CC(=O)N1CCN(c2nc(OCC3CCCN3C)nc3c(F)c(-c4nc(N)cc(C)c4C(F)(F)F)c(Cl)cc23)C(C)C1 gave an IC50 (second compound 0.00316 µM) of 173 nM, an IC50 (second compound 0.01 µM) of 162 nM and an IC50 (second compound 0.0316 µM) of 133 nM. For the same molecule, the IC50 (second compound 0.1 µM) was 121 nM, the IC50 (second compound 0.316 µM) was 140 nM and the IC50 (second compound 1 µM) was 138 nM. It also gave a viability, T/C (second compound 0.00316 µM, first compound 0.00316 µM) of 85.4%, a viability, T/C (second compound 0.00316 µM, first compound 0.01 µM) of 92% and a viability, T/C [1] of 77.5%. For the same molecule, the viability, T/C [2] was 61%, the viability, T/C [3] was 38.4% and the viability, T/C [4] was 24.3%. For the same molecule, the viability, T/C (second compound 0.01 µM, first compound 0.00316 µM) was 87.5%, the viability, T/C (second compound 0.01 µM, first compound 0.01 µM) was 85.4% and the viability, T/C [5] was 73.2%. The viability, T/C [6] was 59.5%, the viability, T/C [7] was 37.9% and the viability, T/C [8] was 23.5%. For the same molecule, the viability, T/C [9] was 83.4%, the viability, T/C [10] was 80.2% and the viability, T/C [11] was 71%. The viability, T/C [12] was 53.6%, the viability, T/C [13] was 36.8% and the viability, T/C [14] was 20.9%. It also gave a viability, T/C [15] of 89.6%, a viability, T/C [16] of 79.6% and a viability, T/C [17] of 68.6%. For the same molecule, the viability, T/C [18] was 52.7%, the viability, T/C [19] was 35.9% and the viability, T/C [20] was 19.7%. For the same molecule, the viability, T/C [21] was 84.5%, the viability, T/C [22] was 79.9% and the viability, T/C [23] was 68.3%. For the same molecule, the viability, T/C [24] was 51.6%, the viability, T/C [25] was 42% and the viability, T/C [26] was 25.9%. The viability, T/C [27] was 88.8%, the viability, T/C [28] was 75.5% and the viability, T/C [29] was 70.8%. It also gave a viability, T/C [30] of 53.8%, a viability, T/C [31] of 38.5% and a viability, T/C [32] of 25.5%.
CC(=O)OC12COC1CC(O)C1(C)C(=O)C(O)C3=C(C)C(OC(=O)C(O)C(NC(=O)OC(C)(C)C)c4ccccc4)CC(O)(C(OC(=O)c4ccccc4)C21)C3(C)C (stereo not drawn) + C#Cc1c(F)ccc2cc(O)cc(-c3ncc4c(N5CC6CCC(C5)N6)nc(OCC56CCCN5CC(F)C6)nc4c3F)c12 was tested, and the IC50 (second compound 0.0316 µM) was under 31.6 nM, the IC50 (second compound 0.1 µM) was under 31.6 nM and the IC50 (second compound 0.316 µM) was under 31.6 nM. The IC50 (second compound 1 µM) was under 31.6 nM, the IC50 (second compound 3.16 µM) was under 31.6 nM and the IC50 (second compound 10 µM) was under 31.6 nM. It also gave a viability, T/C [11] of 4.52%, a viability, T/C [12] of 3.3% and a viability, T/C [13] of 5.75%. For the same molecule, the viability, T/C [14] was 5.44%, the viability, T/C [33] was 6.53% and the viability, T/C [34] was 7.38%. For the same molecule, the viability, T/C [17] was 5.17%, the viability, T/C [18] was 4.75% and the viability, T/C [19] was 5.48%. The viability, T/C [20] was 5.75%, the viability, T/C [35] was 5.28% and the viability, T/C [36] was 6.18%. For the same molecule, the viability, T/C [23] was 5.18%, the viability, T/C [24] was 5.95% and the viability, T/C [25] was 5.15%. For the same molecule, the viability, T/C [26] was 5.27%, the viability, T/C [37] was 4.44% and the viability, T/C [38] was 8.29%. It also gave a viability, T/C [29] of 4.8%, a viability, T/C [30] of 6.07% and a viability, T/C [31] of 7.89%. For the same molecule, the viability, T/C [32] was 6.08%, the viability, T/C [39] was 5.69% and the viability, T/C [40] was 8.43%. It also gave a viability, T/C [41] of 5.43%, a viability, T/C [42] of 5.83% and a viability, T/C (second compound 3.16 µM, first compound 0.316 µM) of 5.33%. For the same molecule, the viability, T/C (second compound 3.16 µM, first compound 1 µM) was 4.35%, the viability, T/C (second compound 3.16 µM, first compound 3.16 µM) was 6.83% and the viability, T/C (second compound 3.16 µM, first compound 10 µM) was 8.8%. The viability, T/C [43] was 5.06%, the viability, T/C [44] was 3.91% and the viability, T/C (second compound 10 µM, first compound 0.316 µM) was 6.9%. The viability, T/C (second compound 10 µM, first compound 1 µM) was 4.34%, the viability, T/C (second compound 10 µM, first compound 3.16 µM) was 3.89% and the viability, T/C (second compound 10 µM, first compound 10 µM) was 7.89%.
C[C@@H](NC(=O)c1ncnc(N)c1Cl)c1ncc(C(=O)Nc2cc(C(F)(F)F)c(Cl)cn2)s1 + C=CC(=O)N1CCN(c2nc(OCC3CCCN3C)nc3c(F)c(-c4nc(N)cc(C)c4C(F)(F)F)c(Cl)cc23)C(C)C1 was tested, and the IC50 (second compound 0.00316 µM) was over 10000 nM, the IC50 (second compound 0.01 µM) was over 10000 nM and the IC50 (second compound 0.0316 µM) was over 10000 nM. The IC50 (second compound 0.1 µM) was over 10000 nM, the IC50 (second compound 0.316 µM) was over 10000 nM and the IC50 (second compound 1 µM) was over 10000 nM. It also gave a viability, T/C [1] of 92.2%, a viability, T/C [2] of 84.3% and a viability, T/C [3] of 92.1%. The viability, T/C [4] was 91.4%, the viability, T/C (second compound 0.00316 µM, first compound 3.16 µM) was 106% and the viability, T/C (second compound 0.00316 µM, first compound 10 µM) was 84.9%. The viability, T/C [5] was 85.2%, the viability, T/C [6] was 84.2% and the viability, T/C [7] was 88.4%. For the same molecule, the viability, T/C [8] was 88.5%, the viability, T/C (second compound 0.01 µM, first compound 3.16 µM) was 91.9% and the viability, T/C (second compound 0.01 µM, first compound 10 µM) was 91.8%. For the same molecule, the viability, T/C [11] was 87.5%, the viability, T/C [12] was 79.8% and the viability, T/C [13] was 87%. It also gave a viability, T/C [14] of 84.9%, a viability, T/C [33] of 94.5% and a viability, T/C [34] of 89.1%. It also gave a viability, T/C [17] of 90.7%, a viability, T/C [18] of 83.7% and a viability, T/C [19] of 87.3%. For the same molecule, the viability, T/C [20] was 90.8%, the viability, T/C [35] was 91.5% and the viability, T/C [36] was 88.7%. For the same molecule, the viability, T/C [23] was 88.5%, the viability, T/C [24] was 87.9% and the viability, T/C [25] was 90.4%. It also gave a viability, T/C [26] of 86.6%, a viability, T/C [37] of 95.7% and a viability, T/C [38] of 91.8%. It also gave a viability, T/C [29] of 82.7%, a viability, T/C [30] of 92.2% and a viability, T/C [31] of 97%. The viability, T/C [32] was 85.3%, the viability, T/C [39] was 92.5% and the viability, T/C [40] was 87.3%.
Work on CC(C)n1nc(-c2ccc3oc(N)nc3c2)c2c(N)ncnc21 + C#Cc1c(F)ccc2cc(O)cc(-c3ncc4c(N5CC6CCC(C5)N6)nc(OCC56CCCN5CC(F)C6)nc4c3F)c12 yielded an IC50 (second compound 0.0316 µM) of 38.3 nM, an IC50 (second compound 0.1 µM) of 24.4 nM and an IC50 (second compound 0.316 µM) of 20.8 nM. It also gave an IC50 (second compound 1 µM) of 18.9 nM, an IC50 (second compound 3.16 µM) of 6.61 nM and an IC50 (second compound 10 µM) of 0.794 nM. It also gave a viability, T/C (second compound 0.0316 µM, first compound 0.000316 µM) of 108%, a viability, T/C (second compound 0.0316 µM, first compound 0.001 µM) of 93.9% and a viability, T/C [9] of 97.5%. For the same molecule, the viability, T/C [10] was 70.8%, the viability, T/C [11] was 55.1% and the viability, T/C [12] was 31.2%. For the same molecule, the viability, T/C (second compound 0.1 µM, first compound 0.000316 µM) was 105%, the viability, T/C (second compound 0.1 µM, first compound 0.001 µM) was 95.7% and the viability, T/C [15] was 93.8%. For the same molecule, the viability, T/C [16] was 72.5%, the viability, T/C [17] was 42.8% and the viability, T/C [18] was 29.8%. For the same molecule, the viability, T/C (second compound 0.316 µM, first compound 0.000316 µM) was 101%, the viability, T/C (second compound 0.316 µM, first compound 0.001 µM) was 91.2% and the viability, T/C [21] was 91.2%. For the same molecule, the viability, T/C [22] was 66.3%, the viability, T/C [23] was 40.6% and the viability, T/C [24] was 26%. For the same molecule, the viability, T/C (second compound 1 µM, first compound 0.000316 µM) was 99.7%, the viability, T/C (second compound 1 µM, first compound 0.001 µM) was 87.8% and the viability, T/C [27] was 81.7%. For the same molecule, the viability, T/C [28] was 62.1%, the viability, T/C [29] was 39.6% and the viability, T/C [30] was 21.8%. The viability, T/C (second compound 3.16 µM, first compound 0.000316 µM) was 93%, the viability, T/C (second compound 3.16 µM, first compound 0.001 µM) was 70% and the viability, T/C (second compound 3.16 µM, first compound 0.00316 µM) was 71.8%. For the same molecule, the viability, T/C (second compound 3.16 µM, first compound 0.01 µM) was 39.1%, the viability, T/C [41] was 25.3% and the viability, T/C [42] was 19.4%. The viability, T/C (second compound 10 µM, first compound 0.000316 µM) was 63.3%, the viability, T/C (second compound 10 µM, first compound 0.001 µM) was 41% and the viability, T/C (second compound 10 µM, first compound 0.00316 µM) was 38.5%. The viability, T/C (second compound 10 µM, first compound 0.01 µM) was 28%, the viability, T/C [43] was 18.8% and the viability, T/C [44] was 10.6%.
